Assay results published in US20160346249A1 (priority 2012, published 2016).

What was measured:
[1] = NADPH dependent metabolism, human liver microsomes; type: in vitro ADME
Method: Bicifadine (10 μM) was used as the positive control and the formation of the lactam metabolites of bicifadine (M-12) was monitored.

[2] = Brain and plasma levels of amitifadine and lactam metabolite EB-10101 in rat; type: in vivo; design: metabolite plasma level (mean±SEM): unit not given here; settings: for metabolite plasma level (mean±SEM): amitifadine 10 mg/kg po
Method: The studies are conducted in accordance with the Institutional Animal Care and Use Committee guidelines. […] At 0.5, 1, 2, and 4 hour after dosage, animals are briefly anesthetized in a chamber containing 4% isoflurane and rapidly decapitated. Trunk blood is collected in heparinized tubes (9 units/ml whole blood), immediately chilled to 4° C., centrifuged, and the plasma is frozen at −80° C. until analyzed. Brains are quickly removed, bisected along the midline, and frozen at −80° C. until analyzed.
Plasma and brain samples are allowed to thaw on ice and are homogenized in a 20 ml glass vial in two volumes of ice cold water using a handheld homogenizer (VDI 12, VWR International). Standard curves are prepared in water, control plasma, and control brain homogenate. Equal volumes (100 μl) of plasma and brain homogenate samples, distilled water and internal standard are mixed in 1.5 ml polypropylene tubes and 300 μl of acetonitrile is added to each mixture. Samples are then mixed thoroughly by placing on a shaker at 200 RPM for 40 minutes at room temperature. The samples are then centrifuged at 10,000×g for 10 minutes at 4° C. and the supernatant (200 μl) is transferred to a tube containing 2 μl of 10% formic acid. The samples are subjected to a Zorbax SBC18 Solvent Saver Plus 3.0×150 mm 3.5-μm column on a Shimadzu Prominence LC. […] The concentration of compound in the column effluent is measured using an Applied Biosystems API-3200 triple quadrupole mass spectrometer.

[3] = Rat developmental toxicity study with toxicokinetics; type: in vivo; settings: for AUC(0-t) / Cmax / Tmax: female, Crl:CD(SD)IGS BR, rat, in vivo, pregnant rats; for AUC(0-t): read-out: AUC0-24
Excerpt: For the toxicology assessment, there were twenty-five mated females/group.
Females that delivered early were necropsied on the day of delivery. […] The fetuses were weighed, sexed, and examined for external, visceral, and skeletal malformations and developmental variations.

[4] = tested on: Salmonella typhimurium and Escherichia coli tester strains; assay: Bacterial reverse mutation assay (Ames); type: cell-based; settings: up to 5000 μg/plate, with and without S9
[5] = Single-dose intravenous rat toxicology study; settings: Crl:CD(SD)IGS BR, in vivo
Method: Clinical observations, body weights, and food consumption were noted periodically. All animals were euthanized following a minimum 13-day non-dosing (recovery) period. Clinical pathology evaluations (hematology and serum chemistry) were performed on all rats at the time of necropsy and selected organs were weighed. No microscopic examinations were performed.

[6] = Single-dose (25 mg) food effect crossover study in 24 men (DOV 947-003); type: in vivo, human; settings: for AUC(0-inf) / AUC(0-t) / Cmax / Tmax / half-life: male, human, in vivo, po, single oral dose 25 mg, 24 healthy male subjects
[7] = 13-week dog toxicity and toxicokinetic study; type: in vivo; settings: for AUC(0-t) / Cmax / Tmax: beagle, dog, in vivo; for AUC(0-t): read-out: AUC0-24; for body weight gain during the study: 20 mg/kg; for mean body weight lower than control: end of study
Method: […] For toxicology assessment, clinical observations, body weight, and food consumption measures were recorded periodically during the study. Ophthalmic examinations were performed and ECGs recorded during Weeks −1 and 12. Clinical pathology evaluations (hematology, serum chemistry, and urinalysis) were performed prior to the initiation of dose administration (Week −1) and prior to the scheduled necropsy (Week 13). At termination, complete necropsies were performed on all dogs and selected organs were weighed. Selected tissues from the control and 20 mg/kg/day group animals and animals euthanized in extremis were examined microscopically. Gross lesions from the 2 and 6 mg/kg/day groups were also examined.

[8] = po, 3 mg/kg/day, 3 mg/kg/day, GD 6
[9] = po, 3 mg/kg/day, 3 mg/kg/day, GD 17
[10] = po, 20 mg/kg/day, 20 mg/kg/day, GD 6
[11] = po, 20 mg/kg/day, 20 mg/kg/day, GD 17
[12] = female, po, 2 mg/kg/day, females, 2 mg/kg/day, Day 0
[13] = female, po, 2 mg/kg/day, females, 2 mg/kg/day, Day 86
[14] = female, po, 6 mg/kg/day, females, 6 mg/kg/day, Day 0
[15] = female, po, 6 mg/kg/day, females, 6 mg/kg/day, Day 86
[16] = female, po, 20 mg/kg/day, females, 20 mg/kg/day, Day 0
[17] = female, po, 20 mg/kg/day, females, 20 mg/kg/day, Day 86
[18] = male, po, 2 mg/kg/day, males, 2 mg/kg/day, Day 0
[19] = male, po, 2 mg/kg/day, males, 2 mg/kg/day, Day 86
[20] = male, po, 6 mg/kg/day, males, 6 mg/kg/day, Day 0
[21] = male, po, 6 mg/kg/day, males, 6 mg/kg/day, Day 86
[22] = male, po, 20 mg/kg/day, males, 20 mg/kg/day, Day 0
[23] = male, po, 20 mg/kg/day, males, 20 mg/kg/day, Day 86

O=C1NCC2(c3ccc(Cl)c(Cl)c3)CC12 (centres unmarked) [EB-10101, 5-(3,4-dichloro-phenyl)-3-aza-bicyclo[3.1.0]hexan-2-one]
amount formed with NADPH vs without NADPH ([1]; HLM, from EB-1010 10 μM): ~2 fold
share of lactam formed by enzymes other than CYPs or FMOs ([1]; human liver microsomes): about 50%
metabolite plasma level (mean±SEM) ([2]; 0.5 h): 1153±610
metabolite plasma level (mean±SEM) ([2]; 1 h): 1620±303
metabolite plasma level (mean±SEM) ([2]; 2 h): 3831±1127
metabolite plasma level (mean±SEM) ([2]; 4 h): 8896±794
Kp at 0.5 h ([2]; male, Sprague-Dawley, rat, brain and plasma, 10 mg/kg oral, 0.5 h, read-out: brain to plasma ratio): 1.1
Kp at 1 h ([2]; male, Sprague-Dawley, rat, brain and plasma, 10 mg/kg oral, 1 h, read-out: brain to plasma ratio): 1.3
Kp at 2 h ([2]; male, Sprague-Dawley, rat, brain and plasma, 10 mg/kg oral, 2 h, read-out: brain to plasma ratio): 1.4
Kp at 4 h ([2]; male, Sprague-Dawley, rat, brain and plasma, 10 mg/kg oral, 4 h, read-out: brain to plasma ratio): 1.7

Clc1ccc([C@]23CNC[C@H]2C3)cc1Cl [amitifadine, (+)-1-(3,4-dichlorophenyl)-3-azabicyclo[3.1.0]hexane]
AUC(0-t) ([3]; oral, 10 mg/kg/day, 10 mg/kg/day, GD 17): 11200 ng·h/mL
Cmax [3, 8]: 387 ng/mL
AUC(0-t) [3, 8]: 2570 ng·h/mL
Cmax [3, 9]: 397 ng/mL
AUC(0-t) [3, 9]: 2620 ng·h/mL
AUC(0-t) ([3]; po, 10 mg/kg/day, 10 mg/kg/day, GD 6): 10900 ng·h/mL
Cmax ([3]; po, 10 mg/kg/day, 10 mg/kg/day, GD 17): 1300 ng/mL
Cmax [3, 10]: 1970 ng/mL
AUC(0-t) [3, 10]: 19500 ng·h/mL
Cmax [3, 11]: 1890 ng/mL
AUC(0-t) [3, 11]: 19700 ng·h/mL
Tmax ([3]; po, 3 mg/kg/day, GD 6): 2 h
Tmax ([3]; po, 10 mg/kg/day, GD 6): 2 h
Tmax ([3]; po, 20 mg/kg/day, GD 6): 2 h
NOEL for developmental toxicity ([3]; oral gavage GD 6-17): 10 mg/kg/day
bacterial reverse mutation assay outcome [4]: negative in the bacterial reverse mutation assay
NOAEL at 13 days ([5]; female rats): 5 mg/kg
NOAEL at 13 days ([5]; male rats): 1.5 mg/kg
effect of food on exposure ([6]; fed vs fasted): no effect of food on exposure
AUC(0-inf) ([6]; Fasted): 1290 ng·h/mL
AUC(0-t) ([6]; Fasted): 1200 ng·h/mL
Cmax ([6]; Fasted): 272 ng/mL
Tmax ([6]; Fasted): 0.98 h
half-life ([6]; Fasted): 3.42 h
AUC(0-inf) ([6]; Fed): 1420 ng·h/mL
AUC(0-t) ([6]; Fed): 1320 ng·h/mL
Cmax ([6]; Fed): 224 ng/mL
Tmax ([6]; Fed): 2.57 h
half-life ([6]; Fed): 3.71 h
AUC(0-t) ([7]; female, oral, 6 mg/kg/day, females, 6 mg/kg/day, Day 86): 15900 ng·h/mL
Cmax [7, 12]: 635 ng/mL
Tmax [7, 12]: 1 h
AUC(0-t) [7, 12]: 1480 ng·h/mL
Cmax [7, 13]: 663 ng/mL
Tmax [7, 13]: 1 h
AUC(0-t) [7, 13]: 2150 ng·h/mL
Cmax [7, 14]: 5120 ng/mL
Tmax [7, 14]: 1 h
AUC(0-t) [7, 14]: 13600 ng·h/mL
Cmax [7, 15]: 4850 ng/mL
Tmax [7, 15]: 1 h
Cmax [7, 16]: 9280 ng/mL
Tmax [7, 16]: 2 h
AUC(0-t) [7, 16]: 63600 ng·h/mL
Cmax [7, 17]: 8430 ng/mL
Tmax [7, 17]: 1 h
AUC(0-t) [7, 17]: 29600 ng·h/mL
body weight gain during the study ([7]; females): 0.4 ± 0.79 kg
mean body weight lower than control ([7]; females, 20 mg/kg/day): 9%
AUC(0-t) ([7]; male, oral, 6 mg/kg/day, males, 6 mg/kg/day, Day 86): 13100 ng·h/mL
Cmax [7, 18]: 507 ng/mL
Tmax [7, 18]: 1 h
AUC(0-t) [7, 18]: 1570 ng·h/mL
Cmax [7, 19]: 753 ng/mL
Tmax [7, 19]: 1 h
AUC(0-t) [7, 19]: 2280 ng·h/mL
Cmax [7, 20]: 4640 ng/mL
Tmax [7, 20]: 1 h
AUC(0-t) [7, 20]: 12800 ng·h/mL
Cmax [7, 21]: 4140 ng/mL
Tmax [7, 21]: 1 h
Cmax [7, 22]: 11400 ng/mL
Tmax [7, 22]: 1 h
AUC(0-t) [7, 22]: 47800 ng·h/mL
Cmax [7, 23]: 7230 ng/mL
Tmax [7, 23]: 1 h
AUC(0-t) [7, 23]: 44000 ng·h/mL
body weight gain during the study ([7]; males): -0.3 ± 0.58 kg
food consumption less than control ([7]; males, 20 mg/kg/day): ≥ 10%
mean body weight lower than control ([7]; males, 20 mg/kg/day): 13%
